Reference: US8158628B2, “Sulfonylated 1,2,3,4-tetrahydropyrrolo[1,2-a]pyrazine compounds and their use as pharmaceuticals” (Gruenenthal GmbH, priority 2009, dated 2012)

Biological target: T1, B1R of the rat (Rattus norvegicus, UniProt P97583)
T1 construct: expressed in transfected cells; host or cells: CHO K1 cells (Chinese hamster ovary), stably transfected
T1 sequence (P97583 1-337): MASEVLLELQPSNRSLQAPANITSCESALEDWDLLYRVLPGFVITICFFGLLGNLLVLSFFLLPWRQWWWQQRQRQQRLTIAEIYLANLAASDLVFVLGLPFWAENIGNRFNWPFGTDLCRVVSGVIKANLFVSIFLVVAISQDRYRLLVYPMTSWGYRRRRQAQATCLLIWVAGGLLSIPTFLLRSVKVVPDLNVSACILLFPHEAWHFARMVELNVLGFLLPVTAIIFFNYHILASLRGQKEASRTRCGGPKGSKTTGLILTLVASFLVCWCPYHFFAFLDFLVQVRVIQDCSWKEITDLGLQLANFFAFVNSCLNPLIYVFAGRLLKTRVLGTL
Test: FLIPR Ca2+ functional assay, B1R antagonism, rat B1R in CHO K1 cells
Assay type: cell-based
Settings: test substance 10 μM; rB1R CHO K1 cells; agonist Des-Arg9 bradykinin at EC80; % of maximum achievable inhibition
Method in brief: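 IC50 values come from varied compound concentrations applied 10-20 min before an EC80 agonist challenge, with Des-Arg9 bradykinin for rat and Lys-Des-Arg9 bradykinin for human receptor. Ca2+ influx in Fluo-4-loaded CHO K1 transfectants was measured by FLIPR peak fluorescence. Data are % inhibition vs maximum, n=2-3, N>=2.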

Row | Compound | inhibition at 10 µM
1 | CN1CCN(CC(NC(=O)CC2c3cccn3CCN2S(=O)(=O)c2cccc(C(F)(F)F)c2)c2ccccc2)CC1 (stereo not drawn) [Example 185, N-[2-(4-Methyl-piperazin-1-yl)-1-phenyl-ethyl]-2-[2-[[3-(trifluoromethyl)phenyl]sulfonyl]-1,2,3,4-tetrahydro-pyrrolo[1,2-a]pyrazin-1-yl]-acetamide] | 76.4%
2 | O=C(CC1c2cccn2CCN1S(=O)(=O)c1ccccc1)NCC1CCCN(Cc2ccccc2)C1 (stereo not drawn) [Example 235, 2-[2-(Benzenesulfonyl)-1,2,3,4-tetrahydro-pyrrolo[1,2-a]pyrazin-1-yl]-N-[(1-benzyl-piperidin-3-yl)-methyl]-acetamide] | -14%
3 | COc1cc(C)c(S(=O)(=O)N2CCn3cccc3C2CC(=O)N2CCCN(c3ncccc3C#N)CC2)c(C)c1 (stereo not drawn) [Example 150, 2-[4-[2-[2-[(4-Methoxy-2,6-dimethyl-phenyl)sulfonyl]-1,2,3,4-tetrahydro-pyrrolo[1,2-a]pyrazin-1-yl]-acetyl]-[1,4]diazepan-1-yl]-pyridine-3-carbonitrile] | 50.3%
4 | CN(C)c1ccc(C2CCCN2C(=O)CC2c3cccn3CCN2S(=O)(=O)c2ccc(C(F)(F)F)cc2Cl)cc1 (stereo not drawn) [Example 270, 2-[2-[[2-Chloro-4-(trifluoromethyl)-phenyl]sulfonyl]-1,2,3,4-tetrahydro-pyrrolo[1,2-a]pyrazin-1-yl]-1-[2-(4-dimethylaminophenyl)-pyrrolidin-1-yl]-ethanone] | 3.1%
5 | COc1cc(C)c(S(=O)(=O)N2CCn3cccc3C2CC(=O)NCC2CCCN(Cc3ccccc3)C2)c(C)c1 (stereo not drawn) [Example 248, N-[(1-Benzyl-piperidin-3-yl)-methyl]-2-[2-[(4-methoxy-2,6-dimethyl-phenyl)sulfonyl]-1,2,3,4-tetrahydro-pyrrolo[1,2-a]pyrazin-1-yl]-acetamide] | 84%
6 | Cc1cccc(Cl)c1S(=O)(=O)N1CCn2cccc2C1CC(=O)NCCN1CCCC1 (stereo not drawn) [Example 153, 2-[2-[(2-Chloro-6-methyl-phenyl)sulfonyl]-1,2,3,4-tetrahydro-pyrrolo[1,2-a]pyrazin-1-yl]-N-(2-pyrrolidin-1-yl-ethyl)-acetamide] | 15.8%
7 | O=C(CC1c2cccn2CCN1S(=O)(=O)c1ccccc1)NC1CCN(Cc2ccccc2)C1 (stereo not drawn) [Example 171, 2-[2-(Benzenesulfonyl)-1,2,3,4-tetrahydro-pyrrolo[1,2-a]pyrazin-1-yl]-N-(1-benzyl-pyrrolidin-3-yl)-acetamide] | 24.4%
8 | Cc1cccc(Cl)c1S(=O)(=O)N1CCn2cccc2C1CC(=O)NCCCN1CCOCC1 (stereo not drawn) [Example 154, 2-[2-[(2-Chloro-6-methyl-phenyl)sulfonyl]-1,2,3,4-tetrahydro-pyrrolo[1,2-a]pyrazin-1-yl]-N-(3-morpholin-4-yl-propyl)-acetamide] | 41.9%
9 | Cc1cccc(Cl)c1S(=O)(=O)N1CCn2cccc2C1CC(=O)N1CCN(c2ccccc2F)CC1 (stereo not drawn) [Example 158, 2-[2-[(2-Chloro-6-methyl-phenyl)sulfonyl]-1,2,3,4-tetrahydro-pyrrolo[1,2-a]pyrazin-1-yl]-1-[4-(2-fluorophenyl)-piperazin-1-yl]-ethanone] | 32%
10 | Cc1cccc(Cl)c1S(=O)(=O)N1CCn2cccc2C1CC(=O)NCCCN1C(C)CCCC1C (stereo not drawn) [Example 155, 2-[2-[(2-Chloro-6-methyl-phenyl)sulfonyl]-1,2,3,4-tetrahydro-pyrrolo[1,2-a]pyrazin-1-yl]-N-[3-(2,6-dimethyl-piperidin-1-yl)-propyl]-acetamide] | 61.5%
11 | CN1CCN(CC(NC(=O)CC2c3cccn3CCN2S(=O)(=O)c2ccccc2)c2ccccc2)CC1 (stereo not drawn) [Example 170, 2-[2-(Benzenesulfonyl)-1,2,3,4-tetrahydro-pyrrolo[1,2-a]pyrazin-1-yl]-N-[2-(4-methyl-piperazin-1-yl)-1-phenyl-ethyl]-acetamide] | 68.4%
12 | O=C(CC1c2cccn2CCN1S(=O)(=O)c1ccccc1)N1CCC[C@H]1CN1CCCC1 (stereo partly drawn) [Example 264, 2-[2-(Benzenesulfonyl)-1,2,3,4-tetrahydro-pyrrolo[1,2-a]pyrazin-1-yl]-1-[(2S)-2-(pyrrolidin-1-yl-methyl)-pyrrolidin-1-yl]-ethanone] | 1.78%

More lines, now with the values ahead:

Row | inhibition at 10 µM | Compound
13 | 26.7% | O=C(CC1c2cccn2CCN1S(=O)(=O)c1ccccc1)N1CCC(N2CCOCC2)CC1 (stereo not drawn) [Example 176, 2-[2-(Benzenesulfonyl)-1,2,3,4-tetrahydro-pyrrolo[1,2-a]pyrazin-1-yl]-1-(4-morpholin-4-yl-piperidin-1-yl)-ethanone]
14 | -7.23% | COc1cc(C)c(S(=O)(=O)N2CCn3cccc3C2CC(=O)N2CCCCCC2c2ccc(N(C)C)cc2)c(C)c1 (stereo not drawn) [Example 255, 1-[2-(4-Dimethylaminophenyl)-azepan-1-yl]-2-[2-[(4-methoxy-2,6-dimethyl-phenyl)sulfonyl]-1,2,3,4-tetrahydro-pyrrolo[1,2-a]pyrazin-1-yl]-ethanone]
15 | 37.5% | O=C(CC1c2cccn2CCN1S(=O)(=O)c1ccccc1)NCC1CCN(Cc2ccccc2)C1 (stereo not drawn) [Example 182, 2-[2-(Benzenesulfonyl)-1,2,3,4-tetrahydro-pyrrolo[1,2-a]pyrazin-1-yl]-N-[(1-benzyl-pyrrolidin-3-yl)-methyl]-acetamide]
16 | 9.54% | O=C(CC1c2cccn2CCN1S(=O)(=O)c1ccccc1)N1CCC(N2CCCC2)CC1 (stereo not drawn) [Example 175, 2-[2-(Benzenesulfonyl)-1,2,3,4-tetrahydro-pyrrolo[1,2-a]pyrazin-1-yl]-1-(4-pyrrolidin-1-yl-piperidin-1-yl)-ethanone]
17 | 55.8% | Cc1cccc(Cl)c1S(=O)(=O)N1CCn2cccc2C1CC(=O)N1CCC(CCN2CCCCC2)CC1 (stereo not drawn) [Example 165, 2-[2-[(2-Chloro-6-methyl-phenyl)sulfonyl]-1,2,3,4-tetrahydro-pyrrolo[1,2-a]pyrazin-1-yl]-1-[4-(2-piperidin-1-yl-ethyl)-piperidin-1-yl]-ethanone]
18 | -0.67% | O=C(CC1c2cccn2CCN1S(=O)(=O)c1ccccc1)N1CCN(c2ccc(Cl)c(Cl)c2)CC1 (stereo not drawn) [Example 231, 2-[2-(Benzenesulfonyl)-1,2,3,4-tetrahydro-pyrrolo[1,2-a]pyrazin-1-yl]-1-[4-(3,4-dichlorophenyl)-piperazin-1-yl]-ethanone]
19 | 28% | O=C(CC1c2cccn2CCN1S(=O)(=O)c1ccccc1)N1CCC(c2ccccc2)CC1 (stereo not drawn) [Example 268, 2-[2-(Benzenesulfonyl)-1,2,3,4-tetrahydro-pyrrolo[1,2-a]pyrazin-1-yl]-1-(4-phenyl-piperidin-1-yl)-ethanone]
20 | 57.7% | COc1cc(C)c(S(=O)(=O)N2CCn3cccc3C2CC(=O)N2CCN(c3ccccc3)CC2)c(C)c1 (stereo not drawn) [Example 145, 2-[2-[(4-Methoxy-2,6-dimethyl-phenyl)sulfonyl]-1,2,3,4-tetrahydro-pyrrolo[1,2-a]pyrazin-1-yl]-1-(4-phenyl-piperazin-1-yl)-ethanone]
21 | 37.4% | COc1cc(C)c(S(=O)(=O)N2CCn3cccc3C2CC(=O)NCCCN2C(C)CCCC2C)c(C)c1 (stereo not drawn) [Example 143, N-[3-(2,6-Dimethyl-piperidin-1-yl)-propyl]-2-[2-[(4-methoxy-2,6-dimethyl-phenyl)sulfonyl]-1,2,3,4-tetrahydro-pyrrolo[1,2-a]pyrazin-1-yl]-acetamide]
22 | -37.1% | Cc1cccc(Cl)c1S(=O)(=O)N1CCn2cccc2C1CC(=O)N1CCCCC1Cc1ccncc1 (stereo not drawn) [Example 251, 2-[2-[(2-Chloro-6-methyl-phenyl)sulfonyl]-1,2,3,4-tetrahydro-pyrrolo[1,2-a]pyrazin-1-yl]-1-[2-(pyridin-4-yl-methyl)-piperidin-1-yl]-ethanone]
23 | -27.4% | COc1cc(C)c(S(=O)(=O)N2CCn3cccc3C2CC(=O)N2CCN(CCC#N)CC2)c(C)c1 (stereo not drawn) [Example 247, 3-[4-[2-[2-[(4-Methoxy-2,6-dimethyl-phenyl)sulfonyl]-1,2,3,4-tetrahydro-pyrrolo[1,2-a]pyrazin-1-yl]-acetyl]-piperazin-1-yl]-propionitrile]
24 | -8.74% | COc1cc(C)c(S(=O)(=O)N2CCn3cccc3C2CC(=O)N2CCN(Cc3c(C)cc(C)cc3C)CC2)c(C)c1 (stereo not drawn) [Example 239, 2-[2-[(4-Methoxy-2,6-dimethyl-phenyl)sulfonyl]-1,2,3,4-tetrahydro-pyrrolo[1,2-a]pyrazin-1-yl]-1-[4-[(2,4,6-trimethyl-phenyl)-methyl]-piperazin-1-yl]-ethanone]
25 | -11.4% | Cc1cccc(Cl)c1S(=O)(=O)N1CCn2cccc2C1CC(=O)N1CCC[C@H]1CN1CCCC1 (stereo partly drawn) [Example 260, 2-[2-[(2-Chloro-6-methyl-phenyl)sulfonyl]-1,2,3,4-tetrahydro-pyrrolo[1,2-a]pyrazin-1-yl]-1-[(2S)-2-(pyrrolidin-1-yl-methyl)-pyrrolidin-1-yl]-ethanone]
26 | 29.8% | Cc1cccc(Cl)c1S(=O)(=O)N1CCn2cccc2C1CC(=O)N1CCN(c2ncccc2C#N)CC1 (stereo not drawn) [Example 261, 2-[4-[2-[2-[(2-Chloro-6-methyl-phenyl)sulfonyl]-1,2,3,4-tetrahydro-pyrrolo[1,2-a]pyrazin-1-yl]-acetyl]-piperazin-1-yl]-pyridine-3-carbonitrile]
27 | -12.6% | Cc1cccc(Cl)c1S(=O)(=O)N1CCn2cccc2C1CC(=O)N1CCN(Cc2ccc(Cl)cc2)CC1 (stereo not drawn) [Example 249, 2-[2-[(2-Chloro-6-methyl-phenyl)sulfonyl]-1,2,3,4-tetrahydro-pyrrolo[1,2-a]pyrazin-1-yl]-1-[4-[(4-chlorophenyl)-methyl]-piperazin-1-yl]-ethanone]
